Reference: patent publication US20050282865A1, “Neurotrophic factor production promoter” (FUJISAWA PHARMACEUTICAL CO., LTD., priority 2002, published 2005)

What was measured:
NGF [1] = test: NGF expression in the brain of normal mouse (EIA); format: in vivo; details: normal mice, 24 hr after final administration, vs control
Experimental: (§1) 5-week-old male ddy mice (Japan LLC, Inc.) were divided into the following three groups (9 mice per group) and subjected to a test. • Group 1 (Control) Phosphate buffered saline (PBS) was intraperitoneally administered to the mice once a day for 7 days. • Group 2 APA (0.75 mg/kg) dissolved in PBS was intraperitoneally administered to the mice once a day for 7 days. • Group 3 APA (7.5 mg/kg) dissolved in PBS was intraperitoneally administered to the mice once a day for 7 days.
(§2) In every group, the mice were decapitated at 24 hr after the final administration and the cerebral cortex and striatum thereof were removed.
(§3) The removed cerebral cortex and striatum were weighed, a homogenizing buffer (0.1M Tris-phosphate buffer (pH 7.4) containing 1M sodium hydrochloride, 2% BSA, 2 mM EDTA, 0.2% sodium azide) supplemented with aprotinin (80 TIU/L) was added in an amount of 19-fold volume of the weight, and the mixture was sonicated 30 times. […]
(§4) The concentration of neurotrophic factor in each sample was measured using EIA according to the method of Furukawa et al. (Journal of Neurochemistry), 40, 734-744 (1983)} in the case of NGF, and using EIA according to the method of Nitta et al. {pp. 463-467 of “Mapping the progress of Alzheimer's and Parkinson's Disease” (2002) edited by Mizuno et al.}, in the case of GDNF. […]

GDNF [2] = test: GDNF expression in the brain of normal mouse (EIA); format: in vivo; details: normal mice, 24 hr after final administration
Experimental: as §1, §2, §3, §4

[3] = Observation of normal mice after 7 consecutive days of intraperitoneal APA; format: in vivo, mouse; details: normal ddy mice, APA i.p. once a day for 7 days (0.75 or 7.5 mg/kg)
Experimental: as §1

dopaminergic nerve = test: Functional evaluation of dopaminergic nerve: methamphetamine-induced one side cycling movement in 6-OHDA mouse model of Parkinson's disease; format: in vivo; details: 6-OHDA striatum destruction, counted 10-20 min after methamphetamine 10 mg/kg, no-APA group 86.0±14.1
Experimental: 5-week-old male ddy mice (Japan LLC, Inc.) were divided into the following four groups (9 mice per group) and subjected to a test. Under pentobarbital anesthesia and without craniotomy, a needle of a microsyringe was punctured through the head skin into the striatum of the right brain, and 1 μL of 6-hydroxydopamine (6-OHDA, Sigma Co., 11.5 μg/μL) dissolved in physiological saline containing 0.05% ascorbic acid was injected. • Group 1 (Control) Physiological saline containing only ascorbic acid was injected, whereby the striatum was not damaged. […]
The mouse models of Parkinson's disease of each of the above-mentioned groups were allowed to search freely in a transparent cylindrical container (glass, diameter 9 cm-height 12 cm) for 10 min, methamphetamine (DAINIPPON Pharmaceutical Co., Ltd., 10 mg/kg) was intraperitoneally administered, and the number of cycling in 10-20 min after administration was counted. […]

NGF [4] = test: NGF expression in the cerebral cortex of mouse model of Parkinson's disease (EIA); format: in vivo; details: 6-OHDA mouse model
Experimental: (§5) The removed cerebral cortex and striatum were weighed, a homogenizing buffer (0.1M Tris-phosphate buffer (pH 7.4) containing 1M sodium hydrochloride, 2% BSA, 2 mM EDTA, 0.2% sodium azide) supplemented with aprotinin (80 TIU/L) was added in an amount of 19-fold volume of the weight, and the mixture was sonicated 30 times. After centrifugation (100,000 g×30 min) at 4° C., the supernatant was separated and the same amount of chloroform was added. The mixture was thoroughly stirred and centrifuged (20,000 g×10 min). The supernatant was separated and used as a sample for EIA (cryopreserved at −20° C. until use).
(§6) The concentration of neurotrophic factor in each sample was measured using EIA according to the method of Furukawa et al. (Journal of Neurochemistry), 40, 734-744 (1983)} in the case of NGF, and using EIA according to the method of Nitta et al. {pp. 463-467 of “Mapping the progress of Alzheimer's and Parkinson's Disease” (2002) edited by Mizuno et al.}, in the case of GDNF. The obtained values were multiplied by 20 to give a neurotrophic factor content of each brain region.
(§7) 5-week-old male ddy mice (Japan LLC, Inc.) were divided into the following four groups (9 mice per group) and subjected to a test. […]

GDNF [5] = test: GDNF expression in the cerebral cortex of mouse model of Parkinson's disease (EIA); format: in vivo; details: 6-OHDA mouse model
Experimental: as §5, §6, §7

[6] = system: rats with injured spinal cord; test: Walking ability of rats with spinal injury (BBB scale); format: in vivo, rat; details: spinal-injured Wistar rats, APA 0.75 mg/kg i.p. once a day
Experimental: 7-week-old male Wistar rats (Japan SMC, Inc.) were divided into the following three groups (12-17 rats per group) and subjected to a test. Pentobarbital sodium (DAINIPPON Pharmaceutical Co., Ltd., 35 mg/kg) was intraperitoneally injected to the rats, median incision was applied to the back, and paraspinal muscle was bluntly detached. After laminectomy of the 12th thoracic vertebra, the left spinal cord was cut at the same position with a sharp cutting tool. After 5 hr from the cutting, the rats confirmed to have anesthetic disorder in the left hind paw were subjected to the following test. • Group 1 PBS was intraperitoneally administered to rats with uninjured spinal cord (sutured without cutting the spinal cord after laminectomy of the 12th thoracic vertebra). • Group 2 PBS was intraperitoneally administered to rats with injured spinal cord. • Group 3 APA (0.75 mg/kg) dissolved in PBS was intraperitoneally administered to rats with injured spinal cord.
In every group, the administration was performed once a day for 20 days from the day of spinal injury. Evaluation method of walking ability of rats with injured spinal cord: The rats were placed in a box (length 1 m×width 1 m×height 30 cm) painted in gray, allowed to search freely, and evaluated in 21 levels according to 21-Point Basso-Besttie-Bresnahan Locomotor Rating Scale (BBB scale).

[7] = APA 0.75 mg/kg i.p. once a day for 7 days
[8] = APA 7.5 mg/kg i.p. once a day for 7 days

CC(=O)N1CCCC[C@H]1C(=O)O [APA, N-acetyl-L-pipecolic acid]
NGF expression amount in the cerebral cortex (NGF [1]; APA 0.75 and 7.5 mg/kg i.p. once a day for 7 days): tended to increase in a dose-dependent manner | NGF expression amount in the striatum (NGF [1]; APA 0.75 or 7.5 mg/kg i.p. once a day for 7 days): did not show remarkable difference from the control | GDNF expression amount in the striatum, increase as compared to the control (GDNF [2]; [7]): 66.0% | GDNF expression amount in the cerebral cortex (GDNF [2]; APA 0.75 or 7.5 mg/kg i.p. once a day for 7 days, vs control): no remarkable difference | abnormal behavior, alopecia or decrease of body weight as compared to control mice [3]: did not show abnormal behavior, alopecia or decrease of body weight | one side cycling movement (dopaminergic nerve; APA 0.75 mg/kg i.p. for 7 days): 40.9±17.3 times | one side cycling movement (dopaminergic nerve; APA 7.5 mg/kg i.p. for 7 days): 47.1±13.1 times | NGF expression amount in the cerebral cortex, increase (NGF [4]; [7]): 11.2% | NGF expression amount in the cerebral cortex, increase (NGF [4]; [8]): 30.7% | GDNF expression amount in the cerebral cortex, increase (GDNF [5]; [7]): 74.9% | GDNF expression amount in the cerebral cortex, increase (GDNF [5]; [8]): 232.4% | level of walking ability (BBB scale) ([6]; at day 23, injury-only group plateaued at score 15): recovery to almost the same level as before injury | effect of APA administration on walking ability (BBB scale) ([6]; first 2 days): not observed | level of walking ability (BBB scale) ([6]; from day 3): showed improvement from day 3
